Measurements from patent publication US11419806B2, “Prebiotic oral care methods using a saccharide” (Colgate-Palmolive Company, priority 2013, dated 2022).

Assays:
Format in all cases: cell-based
[1] = test system: beneficial oral bacteria and pathogenic oral bacteria; test: Microarray screen, overall prebiotic assessment
Procedure: Substrates that were able to increase the metabolic activity of at least one of the above beneficial bacteria while not or only minimally increasing the growth of the pathogenic bacteria are considered to be prebiotic substrates.
(§1) The extent of metabolic activity of the tested bacteria in the presence of the above-mentioned saccharides after 24 hours and 48 hours was investigated through a high throughput phenotype microarray system (PM) for microbial cells (Biolog Inc.). Each PM can contain up to 95 different biochemical compounds (e.g. saccharides) that may act as substrates for bacteria as well as one negative control, not containing the substrates. Microarray plates were used in which the different wells of each plate were pre-loaded (by the manufacturer, Biolog Inc.) with different saccharides to be tested. Each bacterial species was tested using a separate microarray plate. Thus, a single bacterial species was tested with a variety of saccharides on each particular plate. The microarrays are based on redox technology, using cell respiration as a universal reporter. Active cell respiration results in the reduction of a tetrazolium dye and in the formation of a strong color—for example, when using the tetrazolium dye “Biolog Redox Dye Mix D”, the color changes from transparent/colorless to purple when the dye is reduced. The observation of this color change indicates which of the substrates improve the metabolic activity and health of the cells.
(§2) Each bacterial species was collected from blood agar plates (incubated for 48 hours anaerobically at 37° C.) and transferred to an IF-0 Base inoculation fluid (Biolog Inc.), which is a nutritionally poor medium. The resulting cell suspension was adjusted to a transmittance of 42% (relative to the transmittance of the base inoculation fluid with no bacterial species present) at 492 nm using a BioRad SmartSpec 3000 Photometer (the adjustment being effected by adding either further inoculation fluid or further bacteria until the transmittance of 42% was achieved). A 1:5 dilution of this suspension was prepared by mixing 3 mL of the 42% transmittance cell suspension with 15 mL of an inoculation fluid (which inoculation fluid was formed by mixing 11.6 mL sterile water, 62.5 mL IF-0 base inoculation fluid and 0.9 mL of the tetrazolium dye “Biolog Redox Dye mix D”), resulting in a final cell density which was equal to 85% transmittance using a BioRad SmartSpec 3000 Photometer. For each of the saccharides tested, the microarray plate (obtained from the supplier (Biolog Inc.) with saccharides already present in the relevant wells in powder form) was directly inoculated with 100 μL/well of this 85% transmittance cell suspension.
(§3) All plates were incubated in an anaerobic atmosphere at 37° C. Color changes were measured spectrophotometrically at 492 nm (Thermo Scientific Multiskan Ascent) at 24 hrs and 48 hrs using the same plate at both time points. […] After 24 hrs and 48 hrs under continuous shaking in a Multiscan microplate reader, the optical density (OD) of the synthetic medium at 24 hours and 48 hours was measured (using the microplate reader) at a wavelength of 492 nm for each combination of bacterium/saccharide, and for each of their respective controls (i.e. which contained the particular bacterium but no saccharide).
(§4) The experiment was carried out three times for each combination of bacterium with saccharide, with each repeat being carried out on a different day (thus providing three biological replicas). The controls were also carried out three times, as above. The values shown are the average (mean) of the three single values obtained (as detailed above) for each combination of bacterium with saccharide, at 24 hrs and at 48 hrs.
This value was selected in order to exclude low-stimulating metabolites and avoid false positive results.

Streptococcus mutans = test: Phenotype microarray metabolic activity; settings: S mutans
Procedure: as §1, §2, §3, §4

Actinomyces viscosus = test: Phenotype microarray metabolic activity; settings: A viscosus
Procedure: as §1, §2, §3, §4

[2] = test system: Aggregatibacter actinomycetemcomitans; test: Phenotype microarray metabolic activity; settings: A actinomycetemcomitans
Procedure: as §1, §2, §3, §4

Prevotella intermedia = test: Phenotype microarray metabolic activity; settings: P intermedia
Procedure: as §1, §2, §3, §4

Streptococcus salivarius = test: Phenotype microarray metabolic activity; settings: S salivarius
Procedure: as §1, §2, §3, §4

S. salivarius = test: Twenty-four hour biofilm growth (crystal violet)
In short: (§5)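 Bacteria at 1×10^7 CFU/ml in BHI were grown 24 h at 37 °C with D-turanose, D-lactitol, myo-inositol or N-acetyl-D-mannosamine (final 5, 10, 20, 25 μmol/ml), anaerobically for A. viscosus and in 5% CO2 for the others. Ethanol-fixed biofilm was stained with crystal violet and read at 630 nm.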

S. mitis = test: Twenty-four hour biofilm growth (crystal violet)
In short: as §5

S. sanguinis = test: Twenty-four hour biofilm growth (crystal violet)
In short: as §5

SMILES: O[C@H]1[C@H](O)[C@@H](O)[C@H](O)[C@@H](O)[C@H]1O [Myo-Inositol, (1R,2R,3S,4S,5R,6S)-cyclohexane-1,2,3,4,5,6-hexol]
- prebiotic effects (metabolic activity, threshold value 2) ([1]; 24 hrs): exhibited prebiotic effects
- prebiotic effects (metabolic activity, threshold value 2) ([1]; 48 hrs): exhibited prebiotic effects
- metabolic activity: OD 492 nm divided by OD of control (control = 1) (Streptococcus mutans; 24 hrs): 0.8961
- metabolic activity: OD 492 nm divided by OD of control (control = 1) (Streptococcus mutans; 48 hrs): 0.8221
- metabolic activity: OD 492 nm divided by OD of control (control = 1) (Actinomyces viscosus; 24 hrs): 4.3733
- metabolic activity: OD 492 nm divided by OD of control (control = 1) (Actinomyces viscosus; 48 hrs): 4.6590
- metabolic activity: OD 492 nm divided by OD of control (control = 1) ([2]; 24 hrs): 1.3215
- metabolic activity: OD 492 nm divided by OD of control (control = 1) ([2]; 48 hrs): 1.5191
- metabolic activity: OD 492 nm divided by OD of control (control = 1) (Prevotella intermedia; 24 hrs): 1.0174
- metabolic activity: OD 492 nm divided by OD of control (control = 1) (Prevotella intermedia; 48 hrs): 1.0226
- metabolic activity: OD 492 nm divided by OD of control (control = 1) (Streptococcus salivarius; 24 hrs): 0.9641
- metabolic activity: OD 492 nm divided by OD of control (control = 1) (Streptococcus salivarius; 48 hrs): 0.8260
- biofilm growth: OD 630 nm at 24 hrs divided by OD of control (control = 1) (S. salivarius; 5 μmol/ml): 0.8358
- biofilm growth: OD 630 nm at 24 hrs divided by OD of control (control = 1) (S. salivarius; 10 μmol/ml): 0.9694
- biofilm growth: OD 630 nm at 24 hrs divided by OD of control (control = 1) (S. salivarius; 20 μmol/ml): 0.8119
- biofilm growth: OD 630 nm at 24 hrs divided by OD of control (control = 1) (S. salivarius; 25 μmol/ml): 0.8202
- biofilm growth: OD 630 nm at 24 hrs divided by OD of control (control = 1) (S. mitis; 5 μmol/ml): 1.2433
- biofilm growth: OD 630 nm at 24 hrs divided by OD of control (control = 1) (S. mitis; 10 μmol/ml): 1.0616
- biofilm growth: OD 630 nm at 24 hrs divided by OD of control (control = 1) (S. mitis; 20 μmol/ml): 1.1754
- biofilm growth: OD 630 nm at 24 hrs divided by OD of control (control = 1) (S. mitis; 25 μmol/ml): 1.1357
- biofilm growth: OD 630 nm at 24 hrs divided by OD of control (control = 1) (S. sanguinis; 5 μmol/ml): 2.4209
- biofilm growth: OD 630 nm at 24 hrs divided by OD of control (control = 1) (S. sanguinis; 10 μmol/ml): 2.3658
- biofilm growth: OD 630 nm at 24 hrs divided by OD of control (control = 1) (S. sanguinis; 20 μmol/ml): 2.1878
- biofilm growth: OD 630 nm at 24 hrs divided by OD of control (control = 1) (S. sanguinis; 25 μmol/ml): 2.1240
